Legend:
Assay type in all cases: biochemical
[1] = biological target: T1, Cathepsin C from bovine spleen (Bos taurus, UniProt Q3ZCJ8); assay: Protease counter-screening: Cathepsin C
T1 construct: Cathepsin C from bovine spleen was used as the source of; from tissue; host or cells: bovine spleen
Method: (§1) Appendix 7. Protease Counter -Screening
(§2) Protease counter-screeni ng was performed using the methods described below. Initial screening was conducted in duplicate using a single test substance concentration of 10 µ M .
(§3) Additional assays were conducted in replicate for selected pairin gs of test s ubstance and enz yme in order to enable the determination of IC50 values using conventional procedures.
(§4) Determination of K i was made using the Batch K i program (Biokin Ltd, Pullman, WA) to derive values from the Morrison equation: […]
(§5) Where [E ] is the active enz yme concentration, Kiapp is the apparent inhibition const ant, v 0 is the control velocit y in the absence of inhibitors, vb is the background velocity, v is the initial reaction velocit y in the presence of inhibitor, and I is the inhibitor concentration.Thence:
(§6) Where [S ] is the substrate concentration and KM is the Michealis constant. […]
(§7) by addition of 50 µM Ac-DEVD-AMC for another 60 min incubation period. The amount of AMC formed was determined fluorimetricall y (excitation 360 nm/emission 465 nm). […]
(§8) by addition of 25 µM Ac-LEH D-A FC for another 60 min incubation period. The amount of amino-4- trifluorometh ylcoumarin (AFC) formed determined fluorimetrically (400nm/ 510nm).
(§9) Cathepsin C: Cathepsin C from bovine spleen was used as the source of enz yme. […] T he amount of AMC product formed was read spectrofluorimetrically

[2] = biological target: T2, human recombinant caspase 1 (Homo sapiens, UniProt P29466); assay: Protease counter-screening: Caspase 1
T2 construct: host or cells: E. coli
T2 sequence (P29466 120-297 limits assumed): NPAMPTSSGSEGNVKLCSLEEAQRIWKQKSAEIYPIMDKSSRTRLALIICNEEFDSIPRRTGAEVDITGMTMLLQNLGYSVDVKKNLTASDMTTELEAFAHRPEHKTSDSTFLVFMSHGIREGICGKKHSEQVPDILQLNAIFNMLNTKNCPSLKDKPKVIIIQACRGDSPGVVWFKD
T2 sequence (P29466 317-404 limits assumed): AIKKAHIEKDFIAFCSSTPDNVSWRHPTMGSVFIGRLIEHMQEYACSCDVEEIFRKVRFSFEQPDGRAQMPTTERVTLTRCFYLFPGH
Method: as §1, §2, §3, §4, §5, §6, §7, §8, §9

[3] = biological target: T3, Cathepsin D (Homo sapiens, UniProt P07339); assay: Protease counter-screening: Cathepsin D
T3 construct: purified from human li ver; from tissue; host or cells: human liver
T3 sequence (P07339 65-412): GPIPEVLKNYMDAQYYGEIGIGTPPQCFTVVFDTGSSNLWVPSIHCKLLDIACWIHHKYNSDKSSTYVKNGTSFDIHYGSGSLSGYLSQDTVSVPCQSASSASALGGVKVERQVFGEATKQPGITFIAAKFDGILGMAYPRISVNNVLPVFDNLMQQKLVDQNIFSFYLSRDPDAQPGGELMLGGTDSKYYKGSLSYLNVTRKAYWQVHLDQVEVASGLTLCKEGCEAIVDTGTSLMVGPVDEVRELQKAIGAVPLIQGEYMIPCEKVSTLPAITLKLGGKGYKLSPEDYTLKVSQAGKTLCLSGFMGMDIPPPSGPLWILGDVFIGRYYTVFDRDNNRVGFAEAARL
Method: as §1, §2, §3, §4, §5
(§10) Where [S ] is the substrate concentration and KM is the Michealis constant.
(§11) Caspase 1: Activity against human recombinant caspase 1 expressed in E. coli was tested using Ac-YVAD- AMC as the substrate. Test compound or vehicle was pre- incubated with 600 […]
Cathep sin D: Tests were performed using enz ym e purified from human li ver. Test compound or vehicle was pre- incubated with 190 mU/mL enz yme in modified acetate buffer pH 4.0 for 15 min at 37 °C. […]
The amount of MCA-P LG formed was measured spectrofluorimetricall y at 340 nm/400 nm. […]

[4] = biological target: T4, human plasma thrombin (Homo sapiens, UniProt P00734); assay: Protease counter-screening: Thrombin; details: test concentration 0.3-100 µM
T4 construct: thrombin in modified HEPES buffer pH 7.5; from tissue; host or cells: human plasma
Method: as §1, §2, §3, §4, §5, §10, §11
followed by excitation/emission at 485/535 nm. […]
AMC formation was read at 360 nm/465 nm.
Cathepsin L2: Human recombinant cathepsin L2 expressed in NS0 cells was used as the enzyme source. […] Form ation of AMC was measured at 360 […]
The amount of AMC formed was read spectrofluorimetricall y at 360 nm/465 nm. […]

T1 sequence (Q3ZCJ8 25-463): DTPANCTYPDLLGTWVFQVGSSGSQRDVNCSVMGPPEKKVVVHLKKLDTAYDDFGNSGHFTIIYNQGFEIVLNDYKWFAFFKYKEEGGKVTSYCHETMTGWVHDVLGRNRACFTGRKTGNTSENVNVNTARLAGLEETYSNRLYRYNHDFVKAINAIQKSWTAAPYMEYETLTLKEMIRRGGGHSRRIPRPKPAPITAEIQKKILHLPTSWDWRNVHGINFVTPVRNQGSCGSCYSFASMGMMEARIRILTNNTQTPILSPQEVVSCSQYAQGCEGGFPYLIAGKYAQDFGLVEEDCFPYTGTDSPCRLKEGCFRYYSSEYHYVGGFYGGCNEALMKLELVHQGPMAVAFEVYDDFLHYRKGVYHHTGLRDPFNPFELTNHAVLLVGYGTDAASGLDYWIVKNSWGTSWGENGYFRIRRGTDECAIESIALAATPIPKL

`CC(C)[C@H](NC(=O)[C@H](C)NC(=O)[C@@H](NC(=O)c1ccccc1)C(C)(C)C)C(=O)C(=O)NCc1ccccc1` [Compound 38, N-{(S)-1-[(S)-1-((S)-1-Benzylaminooxalyl-2-methyl-propylcarbamoyl)-ethylcarbamoyl]-2,2-dimethyl-propyl}-benzamide] showed an inhibition at 10 µM [1] of 0%, an inhibition at 10 µM [2] of 8% and an inhibition at 10 µM [3] of 2%. The IC50 [4] was over 100 µM.
